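Values below derive from 48-hour exposures of cells grown in 96-well plates, with endpoints linearly interpolated between the two concentrations bracketing the appropriate inhibition level. At the TGI there is no net growth.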
Assays:
Experiment in all cases: DTP human tumour cell line panel, 48 h
SN12C renal = system: SN12C renal
OVCAR-3 ovarian = system: OVCAR-3 ovarian
SW-620 colon = system: SW-620 colon
DU-145 prostate = system: DU-145 prostate
SNB-19 CNS = system: SNB-19 CNS
RPMI-8226 leukemia = system: RPMI-8226 leukemia
TK-10 renal = system: TK-10 renal
CCRF-CEM leukemia = system: CCRF-CEM leukemia
HOP-62 NSCLC = system: HOP-62 NSCLC
LOX IMVI melanoma = system: LOX IMVI melanoma
COLO 205 colon = system: COLO 205 colon
HL-60(TB) leukemia = system: HL-60(TB) leukemia
IGROV1 ovarian = system: IGROV1 ovarian
SR leukemia = system: SR leukemia
MALME-3M melanoma = system: MALME-3M melanoma
SK-MEL-5 melanoma = system: SK-MEL-5 melanoma
HS 578T breast = system: HS 578T breast
SK-OV-3 ovarian = system: SK-OV-3 ovarian
NCI-H522 lung = system: NCI-H522 lung
BT-549 breast = system: BT-549 breast

SMILES | TGI (SN12C renal) [µM] | TGI (OVCAR-3 ovarian) [µM] | TGI (SW-620 colon) [µM] | TGI (DU-145 prostate) [µM] | TGI (SNB-19 CNS) [µM] | TGI (RPMI-8226 leukemia) [µM] | TGI (TK-10 renal) [µM] | TGI (CCRF-CEM leukemia) [µM] | TGI (HOP-62 NSCLC) [µM] | TGI (LOX IMVI melanoma) [µM] | TGI (COLO 205 colon) [µM] | TGI (HL-60(TB) leukemia) [µM] | TGI (IGROV1 ovarian) [µM] | TGI (SR leukemia) [µM] | TGI (MALME-3M melanoma) [µM] | TGI (SK-MEL-5 melanoma) [µM] | TGI (HS 578T breast) [µM] | TGI (SK-OV-3 ovarian) [µM] | TGI (NCI-H522 lung) [µM] | TGI (BT-549 breast) [µM]
CCO/C=N\C1=C(C#N)SC2=N/C(=C\c3ccco3)C(=O)N21 | > 100 | > 100 | > 100 | > 100 | > 100 | > 100 | > 100 | > 100 | > 100 | > 100 | > 100 | > 100 | > 100 | > 100 | > 100 | > 100 | > 100 | > 100 | > 100 | 
COc1nc2c(c(=O)[nH]1)N=C(c1ccc([N+](=O)[O-])cc1)CC(c1ccccc1)N2 (stereo not given) | > 100 | > 100 | > 100 | > 100 | > 100 | > 100 |  | > 100 | > 100 | > 100 | > 100 | 46.6 | > 100 | > 100 | > 100 | > 100 |  |  | > 100 | > 100
Cc1c(S(=O)(=O)/N=C(\NO)Nc2ccc(Cl)cc2)sc2ccc(Cl)cc12 | 35.5 | 25.8 | 63.1 | 53.7 | 35.2 |  | 35.5 | > 100 | 36.7 | 32.2 | 30.9 | 47.3 | 27.5 |  | 33.8 | 27.4 | 44.3 | 31.2 | 22.7 | 31.7
O=c1oc2cc(O)ccc2c(O)c1C(c1ccc(/C=C/c2ccccc2)cc1)c1c(O)c2ccc(O)cc2oc1=O | > 100 | > 100 | > 100 | > 100 | > 100 | > 100 | > 100 | > 100 | > 100 | > 100 | > 100 | 69.6 | > 100 |  | > 100 | 95 | > 100 | > 100 | > 100 | > 100
COc1cc(N(CCC#N)CCC#N)ccc1/C(N=Nc1cccc([N+](=O)[O-])c1)=N\NC(=O)c1ccc(C)cc1 | > 100 | > 100 | > 100 | > 100 | > 100 | > 100 | > 100 | 99.2 | > 100 | > 100 | > 100 | 49.1 | > 100 |  | > 100 | > 100 | > 100 | > 100 | > 100 | > 100
CCOC(=O)c1c2ccccc2n2c(=O)n(-c3ccccc3)nnc12 | > 100 | > 100 | > 100 | > 100 | > 100 | > 100 | > 100 | > 69.5 | > 100 | > 100 | > 100 | > 100 | > 100 | > 25.1 | > 100 | 41.7 | > 100 | > 85 |  | > 100
O=[N+]([O-])C1=Cc2c(O)ccc(O)c2C2c3ccccc3NC12 (stereo not given) | 30.9 | 19.3 | > 47.1 | > 54 | 34.5 | 63.6 | 30 | > 22.7 | 25 | > 52.7 | 33.9 | > 21 | 32.7 | > 64.3 |  | 27.6 | > 57 | > 100 | 5.48 | 25.8
O=c1[nH]nc(Nc2ccc(Cl)cc2)c2nnn(-c3ccc([N+](=O)[O-])cc3)c12 | > 100 |  | > 100 | 48.6 | > 100 | > 100 | 46.7 | 61.7 | > 100 | 53.1 | 49.7 | > 100 | > 100 | > 100 | > 100 | 22.7 |  |  | 18 | > 100
CN1CN(c2ccccc2)C2(CCN(CCCN(C)c3ccc(F)cc3)CC2)C1=O | 66.4 | 31.7 | 36.2 | 76.1 | 56.5 | 80.4 | 44.9 | 62.1 | 32.1 | 31 | 24.1 | 26.2 | 34.6 |  | 38.1 | 29.8 | 42.8 | 42.3 | 27.4 | 31.1
C/C(=C\COP(=O)(O)CP(=O)(O)O)CC/C=C(\C)CNc1ccccc1 | > 100 | > 100 | > 100 | > 100 | > 100 | > 100 | > 100 | > 100 | > 100 | > 100 | > 100 | > 100 | > 100 |  |  | > 100 | > 100 | > 100 | > 100 | > 100
CCOC(=O)c1nc2ccccc2nc1Oc1ccc(F)cc1 | > 100 | > 100 | > 100 | > 100 | > 100 | > 100 | > 100 | > 100 | > 100 | > 100 | > 100 |  | > 100 |  |  | > 100 | > 100 | > 100 |  | > 100
CC(C)c1cc(C(C)C)c(S(=O)(=O)N/N=C2\CC3CCC2(C)C3(C)C)c(C(C)C)c1 (stereo not given) | 38.2 | > 100 | > 100 | > 100 | > 100 | 21.2 | > 100 | 22.8 | > 100 |  | 79.3 |  | > 100 |  | > 100 | 30.5 | > 100 | > 100 | 36.8 | > 100
CC(=O)OCC1OC(Sc2nc(-c3ccccc3)c(C#N)c(=O)n2C2OC(COC(C)=O)C(OC(C)=O)C(OC(C)=O)C2OC(C)=O)C(OC(C)=O)C(OC(C)=O)C1OC(C)=O (stereo not given) | > 100 | > 100 | > 100 | > 100 |  | > 100 | > 100 |  | > 100 | > 100 | > 100 |  | > 100 | > 100 |  | > 100 | > 100 | > 100 | > 100 | > 100
COC(=O)[C@@H](N1C(=O)c2ccccc2C1=O)C1(C)CC(Cl)=NO1 (stereo not given in full) | > 100 | > 100 | > 100 | > 100 | 56.2 | > 100 | 82.4 | > 100 | 38.9 |  | > 100 |  | 58.2 |  | > 100 | > 100 | 75.3 | > 100 | 79.1 | > 100
CC(=O)C1=C(C)N2C(=NC3=C(CCc4ccccc43)C2c2ccc(Cl)cc2)S1 (stereo not given) | > 100 | > 100 | > 100 | > 100 | > 100 | 12.8 | > 100 | > 96.6 | > 100 | > 100 | > 100 | 10.9 | > 100 |  | > 100 | > 100 | > 100 | > 100 | 82.7 | > 100
C[N+](C)(C)CC(=O)N/N=C\c1c(O)ccc2ccccc12 | > 100 | > 100 | > 100 | > 100 | > 100 | > 100 | > 100 | 76.1 | > 100 | > 100 | > 100 | 43.3 | > 100 | > 100 | 38.3 | 39.3 | 56.5 | > 100 | 53.6 | 
CCOC(=O)c1cn2c(n1)sc1cc([N+](=O)[O-])ccc12 | > 100 | > 100 | > 100 | > 100 | > 100 | > 100 | > 100 | > 100 | > 100 | > 100 | > 100 |  | > 100 | > 100 | > 100 | > 100 | > 100 | > 100 | > 100 | > 100
CC(=O)O[C@H]1CC[C@@]2(C)C(=CC[C@@H]3[C@@H]2CC[C@]2(C)C(=O)/C(=C\c4ccccc4)C[C@@H]32)C1 | > 100 | > 100 | > 100 | > 100 | > 100 | > 100 | > 100 | > 100 | > 100 | > 100 | > 100 |  | > 100 | > 100 | > 100 | > 100 |  | > 100 | > 100 | > 100
C(#C[C@@]12CCC[C@@H]1NCO2)c1ccc2c(c1)OCO2 |  | > 100 | > 100 | > 100 | > 100 | > 100 | > 100 | > 100 | > 100 | > 100 | 31.5 | 68.2 | > 100 | > 100 | > 100 | > 100 | > 100 | > 100 | > 100 | 
COC(=O)c1c(O)ccc2c1c1c(n2CCc2ccccc2)C(=O)c2ccccc2C1 | 35.4 | 47.5 | > 100 | > 100 | 84.1 | 34 | > 100 | 60.6 | 52.3 | > 100 | 32.5 | 65.3 | 46 | > 100 | > 100 | 43 | > 100 | 64.2 |  | 63.1
O=C(O)c1ccc2nc(-c3ccccn3)c(-c3ccccn3)nc2c1 |  |  | > 100 | > 100 | > 100 | > 100 | > 100 | > 100 | > 100 | > 100 | > 100 | > 100 | > 100 | > 100 |  | > 100 | > 100 | > 100 |  | > 100
CC(=O)Nc1ccc2c3c(cc(O)c2c1)N(C(=O)CCCCCCC(=O)Nc1ccc2c4c(cc(O)c2c1)N(C(=O)OC(C)(C)C)CC4CCl)CC3CCl (stereo not given) | 2.59 | 0.263 | > 36.3 | 0.0587 |  |  |  | 0.0259 | 3.45 | > 33.4 | 0.284 | 0.241 | > 33.8 | 0.0243 |  | 0.0783 |  | 23.9 | 0.405 | 0.979
Cc1c(CNc2ccc(Cl)c(Cl)c2Cl)cnc2nc(N)nc(N)c12 | > 100 | > 51.3 | > 70.1 |  | > 59.9 | 49 | 48.3 | 6.55 | > 43.5 | 13.6 | 33.8 | 15.3 | > 49.3 | > 57.9 | > 100 |  | 65.6 | > 52.4 | > 45.2 | 50.8
C/C(=C/C(=O)N(C)c1ccccc1Cl)O[Si](C(C)C)(C(C)C)C(C)C | 32.4 | 33.5 | 38.9 | > 100 | 64.5 | 63.9 | > 100 |  | 74.4 | 33.2 | 32.6 |  | 59.7 |  | 51.5 | 30.8 |  | > 100 | 31.8 | 56.6
O=C1C/C(=C\c2ccccc2)C(=O)c2ccccc2N1 | 34.8 | 50.5 | 40.7 | 59.4 | 30.7 |  | 54.7 | 49.8 | 56.6 | 40.8 | 34.8 | 49.2 | 38 | 99.5 | 34.2 | 36.2 | > 100 | 68 | 51.9 | 

Reference: PubChem BioAssay (NCI)
